Reference: US20040028752A1, “Topical pharmaceutical composition comprising a cholinergic agent or a calcium channel blocker” (S.L.A. Pharma AG., priority 2002, published 2004)
Read-outs that look alike come from different tables or passages of the source.

Tests used:
chronic anal fissures [1] = test: Open study of bethanechol cream in patients with chronic anal fissures; format: in vivo, human; conditions: 0.1% cream three times daily
From the text: The 0.1% bethanechol cream of example 3 was applied to the anus three times daily for an eight week course to treat patients suffering from chronic anal fissures (in an uncontrolled, open, pilot study). To date, 6 patients have been treated and followed up for 3 to 5 weeks. Four patients have had complete resolution of symptoms, of whom 3 have complete and 1 partial healing of the fissure. In all of these 4 patients there has been a reduction of the maximum resting anal sphincter pressure to within normal limits. One patient discovered they were pregnant and treatment was discontinued. The last patient has had no relief and remains symptomatic after 4 weeks' follow up.

[2] = system: resting anal sphincter pressure; test: Bethanechol dose ranging study in healthy volunteers; format: in vivo, human
From the text: Bethanechol cream at concentrations of 0.05%, 0.1%, 0.5% and 1% w/w bethanechol were made up in accordance with example 1. The compositions were studied following initial experimentation in an open way to determine a clinically effective dose range. […] Maximal effect was produced by application of 0.1% bethanechol and higher concentrations of the cream produced no additional effect. At 0.1% w/w bethanechol, the mean resting pressure was reduced from about 110 cm to about 85 cm H2O (about 25% decrease). A typical ‘one inch’ application of this cream from the tube is equivalent to 400 mcg of bethanechol.

[3] = system: internal anal resting pressure; conditions: topical use; cited from earlier work
chronic anal fissures [4] = test: Open study of diltiazem cream in patients with anal fissures; format: in vivo, human
From the text: 2% diltiazem cream from example 2 was applied to the anus three times daily for 8 weeks to treat patients suffering from chronic anal fissures (in an uncontrolled, open, pilot study). To date, 7 patients were studied and followed up between 2 to 5 weeks. 5 patients have had complete resolution of symptoms, of whom 3 have complete and 2 partial healing of the fissure. In four of these 5 patients there has been a reduction of the maximum resting anal sphincter pressure to within normal limits. The last patient, though symptom free, continues to have a high anal resting pressure.
2 patients have only had two weeks of treatment and one is symptom free after this short period, whilst the other still has occasional pain. It is too early to comment on healing of fissures in these two patients.

[5] = system: resting anal sphincter pressure; test: Diltiazem dose ranging study on healthy volunteers, eight channel water perfused manometer; format: in vivo, human
From the text: Concentrations of diltiazem cream used were 0.1%, 0.5%, 1%, 2%, 5% and 10%. […] The maximal effect, at which the mean resting anal pressure was lowered by 28% (P<0.0001), was produced by 2% w/w cream (See FIG. 1).

[6] = system: internal anal resting pressure; conditions: given orally at 60 mg; cited from earlier work
[7] = system: mean anal resting pressure; test: Study of example 4 repeated using oral diltiazem
[8] = system: maximum resting pressures in the anal canal; conditions: after 1 hour, patients with anal fissures; cited from earlier work
[9] = among the four patients with complete resolution of symptoms
[10] = 2% cream three times daily, among the 5 patients with complete resolution of symptoms

CC(C[N+](C)(C)C)OC(N)=O (centres unmarked) [bethanechol]
patients with complete resolution of symptoms (chronic anal fissures [1]; 6 patients treated, follow up 3 to 5 weeks): Four
patients with complete healing of the fissure (chronic anal fissures [1]; [9]): 3 patients
patients with partial healing of the fissure (chronic anal fissures [1]; [9]): 1 patients
patients with reduction of the maximum resting anal sphincter pressure to within normal limits (chronic anal fissures [1]; of the 4 symptom-free patients): 4 patients
decrease of mean resting pressure ([2]; 0.1% w/w bethanechol topical, healthy volunteers): about 25%
mean resting pressure after application ([2]; 0.1% w/w bethanechol topical, healthy volunteers, reduced from about 110 cm): about 85 cm H2O
effect on resting anal sphincter pressure ([2]; topical 0.05%, 0.1%, 0.5% and 1% w/w): dose dependent reduction
effect of a single application sustained from ([2]; topical bethanechol, healthy volunteers (FIG. 4: 0.1% w/w gel)): 3 to 5 h
concentration producing the maximal effect on resting anal sphincter pressure ([2]; topical, 0.05%, 0.1%, 0.5% and 1% w/w tested, higher concentrations no additional effect): 0.1%

O=[N+]([O-])OCC(CO[N+](=O)[O-])O[N+](=O)[O-] [glyceryl trinitrate]
effect on internal anal resting pressure [3]: reduces the internal anal resting pressure

COc1ccc([C@@H]2Sc3ccccc3N(CCN(C)C)C(=O)[C@@H]2OC(C)=O)cc1 [diltiazem]
patients with complete resolution of symptoms (chronic anal fissures [4]; 2% cream three times daily, 7 patients studied, follow up 2 to 5 weeks): 5 patients
patients with complete healing of the fissure (chronic anal fissures [4]; [10]): 3 patients
patients with partial healing of the fissure (chronic anal fissures [4]; [10]): 2 patients
patients with reduction of the maximum resting anal sphincter pressure to within normal limits (chronic anal fissures [4]; 2% cream three times daily, of the 5 symptom-free patients): four
patients symptom free after two weeks of treatment (chronic anal fissures [4]; 2% cream, of the 2 patients with only two weeks of treatment): one
mean resting anal pressure lowered by ([5]; 2% w/w cream, topical to anus, ten healthy volunteers, maximal effect, P<0.0001): 28%
effect on resting anal sphincter pressure ([5]; topical cream 0.1%, 0.5%, 1%, 2%, 5% and 10%): dose dependent reduction
effect of a single application sustained for ([5]; topical diltiazem, healthy volunteers (FIG. 2: 1% w/w gel)): 3 to 5 h
effect on internal anal resting pressure [6]: reduce internal anal resting pressure
effect on mean anal resting pressure ([7]; 60 mg oral once a day): no notable effect
patients who noticed postural dizziness ([7]; 60 mg oral twice a day): two
mean anal resting pressure reduced by ([7]; 60 mg oral twice a day, P=0.008): 17%

O=C(NC1CCN(CCc2c[nH]c3ccccc23)CC1)c1ccccc1 [indoramin]
reduction of maximum resting pressures in the anal canal [8]: 35.8%
